# Where a name gives a salt, the structure may show the parent alone. The source made the active and inactive calls.
# Tests used:
# [1] = target: T1, Carboxy-terminal domain RNA polymerase II polypeptide A small phosphatase 1 (Homo sapiens, UniProt Q9GZU7); experiment: CTDSP1 inhibitors, concentration-response, biochemical, absorbance readout, ultra-high-throughput screen actives (AID 540297); format: functional
# T1 sequence (Q9GZU7 whole entry): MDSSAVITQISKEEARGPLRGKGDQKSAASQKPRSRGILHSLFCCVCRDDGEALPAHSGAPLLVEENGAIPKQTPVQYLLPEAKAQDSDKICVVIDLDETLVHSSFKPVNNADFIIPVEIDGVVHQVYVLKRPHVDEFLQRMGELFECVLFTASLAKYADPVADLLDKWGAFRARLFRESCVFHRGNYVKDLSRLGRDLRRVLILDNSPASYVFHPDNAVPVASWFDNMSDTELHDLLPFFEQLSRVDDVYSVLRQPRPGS
# Streptococcus = experiment: GAS UMAA2166 growth inhibition – luminescence, BacTiterGlo, counter-screen for streptokinase expression inhibitor project, dose response (AID 1915); format: functional, organism-based;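 further: potency for reduction of bacterial viability or growth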
# [2] = system: Streptococcus sp. 'group A'; experiment: Streptococcus pyogenes SK(-)GAS viability under kanamycin – luminescence, BacTiterGlo, confirmation, counter-screen for streptokinase expression inhibitor project, dose response (AID 1900); format: functional, organism-based
# Streptokinase A = target: T2, Streptokinase A (Streptococcus pyogenes serotype M1, UniProt P10520); experiment: viability-normalized secreted streptokinase activity reduction – plasminogen activation absorbance, OD405, dose response (AID 1914); format: functional, Streptococcus pyogenes M1 GAS;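 further: secreted streptokinase activity via plasminogen activation per viability signal from cell pellet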
# T2 sequence (P10520 whole entry): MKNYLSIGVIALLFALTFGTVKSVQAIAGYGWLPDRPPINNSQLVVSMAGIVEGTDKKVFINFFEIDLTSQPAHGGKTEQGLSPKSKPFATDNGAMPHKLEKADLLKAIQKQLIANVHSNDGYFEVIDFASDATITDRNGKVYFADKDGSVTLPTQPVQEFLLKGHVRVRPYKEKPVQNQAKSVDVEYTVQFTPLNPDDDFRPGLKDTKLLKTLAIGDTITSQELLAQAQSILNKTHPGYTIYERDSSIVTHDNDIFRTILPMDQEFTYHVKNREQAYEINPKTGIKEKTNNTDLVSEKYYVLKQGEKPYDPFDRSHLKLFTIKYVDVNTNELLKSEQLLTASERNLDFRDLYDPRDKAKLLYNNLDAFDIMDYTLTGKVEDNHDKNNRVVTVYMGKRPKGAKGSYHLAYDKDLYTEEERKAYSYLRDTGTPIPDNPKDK
# [3] = alpha-synuclein stem-loop luciferase translation blockers – H4 neuroglioma cells, luminescence, confirmation (AID 1988); format: functional, cell-based
# [4] = HEK-293T viability loss after treatment – luminescence, T-cell screen hits, cytotoxicity control for TCR NF-kB inhibitor project, dose response (AID 489026); format: functional, cell-based;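 further: cells exposed to compound about 14 hours before the viability readout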
# [5] = luciferase reporter signal suppression in cells – H4 neuroglioma cells, luminescence, dose response (AID 1990); format: functional, cell-based
# [6] = Luminescence Cell-Based Dose Response HTS to Identify Inhibitors of 5'UTR Stem-Loop Driven Prion Protein mRNA Translation in H4 Neuroglioblastoma Cells. [Related pubchem assays: 1827 (Project Summary), 1813 (Primary HTS)]; format: functional
# Cytochrome P450 1A2 = target: T3, Cytochrome P450 1A2 (Homo sapiens, UniProt P05177);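 further: PubChem cytochrome P450 panel assay, CYP1A2 panel member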
# T3 sequence (P05177 whole entry): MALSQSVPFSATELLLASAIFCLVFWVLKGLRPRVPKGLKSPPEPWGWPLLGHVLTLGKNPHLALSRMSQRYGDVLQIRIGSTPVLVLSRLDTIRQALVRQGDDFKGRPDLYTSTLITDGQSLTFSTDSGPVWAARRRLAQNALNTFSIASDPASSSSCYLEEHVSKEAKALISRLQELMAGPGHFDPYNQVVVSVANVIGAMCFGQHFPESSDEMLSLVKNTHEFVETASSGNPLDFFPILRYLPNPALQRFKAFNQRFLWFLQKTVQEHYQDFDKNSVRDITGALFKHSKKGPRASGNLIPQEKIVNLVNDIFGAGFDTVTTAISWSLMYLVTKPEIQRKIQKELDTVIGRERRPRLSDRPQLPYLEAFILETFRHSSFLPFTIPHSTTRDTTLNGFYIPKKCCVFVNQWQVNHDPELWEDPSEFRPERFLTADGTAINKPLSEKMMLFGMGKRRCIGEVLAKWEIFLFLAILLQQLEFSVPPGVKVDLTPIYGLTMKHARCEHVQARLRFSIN
# Cytochrome P450 2C9 = Cytochrome P450 2C9 (Homo sapiens, UniProt P11712)
# Sequence of Cytochrome P450 2C9 (P11712 whole entry): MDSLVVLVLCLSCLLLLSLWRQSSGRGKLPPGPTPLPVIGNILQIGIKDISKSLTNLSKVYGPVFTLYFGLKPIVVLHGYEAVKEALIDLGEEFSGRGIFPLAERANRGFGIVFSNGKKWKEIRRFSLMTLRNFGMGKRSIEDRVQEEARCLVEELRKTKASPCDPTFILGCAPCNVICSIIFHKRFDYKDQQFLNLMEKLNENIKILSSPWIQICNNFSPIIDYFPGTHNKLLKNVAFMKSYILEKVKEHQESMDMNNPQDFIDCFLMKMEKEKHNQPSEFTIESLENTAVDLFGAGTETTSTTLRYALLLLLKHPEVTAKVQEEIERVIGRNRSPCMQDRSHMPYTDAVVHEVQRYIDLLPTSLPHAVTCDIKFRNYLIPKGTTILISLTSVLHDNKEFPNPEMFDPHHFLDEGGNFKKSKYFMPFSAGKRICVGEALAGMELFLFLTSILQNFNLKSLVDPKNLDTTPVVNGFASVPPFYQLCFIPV
# [7] = A cytotoxicity screen of small molecule inhibitors of the PhoP region in Salmonella typhi identified in the primary screen. [Related pubchem assays: 1850, 1864, 1985 ]; format: functional
# [8] = microbe, parasite or virus in culture; format: functional; details: Mycobacterium tuberculosis
# [9] = THP-1 cell cytotoxicity, dose response, cytotoxicity control for non-replicating M. tuberculosis project (AID 489025); format: functional
# cells = format: functional
# [10] = target: T4, Heat shock factor protein 1 (Mus musculus, UniProt P38532); experiment: decrease of HSF1-responsive luciferase luminescence – cell-based, NIH3T3, dose retest, confirmation (AID 2382); format: functional;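 further: NIH3T3 fibroblasts with HSF1-driven luciferase reporter stressed by proteasome inhibitor MG132; luminescence from HSF1-driven luciferase expression after 8 hours of MG132 stress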
# T4 sequence (P38532 whole entry): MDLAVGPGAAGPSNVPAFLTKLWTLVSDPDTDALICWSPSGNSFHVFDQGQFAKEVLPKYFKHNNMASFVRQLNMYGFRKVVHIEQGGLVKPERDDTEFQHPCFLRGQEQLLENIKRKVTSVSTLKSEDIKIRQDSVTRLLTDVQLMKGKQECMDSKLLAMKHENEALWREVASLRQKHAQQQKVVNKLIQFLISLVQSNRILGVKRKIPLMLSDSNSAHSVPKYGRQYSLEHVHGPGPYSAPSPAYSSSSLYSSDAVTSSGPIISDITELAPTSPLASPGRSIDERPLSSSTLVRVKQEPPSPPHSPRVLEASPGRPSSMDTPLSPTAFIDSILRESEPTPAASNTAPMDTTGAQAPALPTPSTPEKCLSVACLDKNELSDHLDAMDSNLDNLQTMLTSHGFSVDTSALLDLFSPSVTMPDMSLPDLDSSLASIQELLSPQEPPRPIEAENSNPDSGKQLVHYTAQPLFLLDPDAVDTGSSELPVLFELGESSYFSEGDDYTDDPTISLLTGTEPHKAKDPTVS
# H4 = experiment: Luminescence Cell-Based Dose Response HTS to Identify Activators of 5'UTR Stem-Loop Driven Prion Protein mRNA Translation in H4 Neuroglioblastoma Cells. [Related pubchem assays: 1829 (Project Summary), 1814 (Primary HTS)]; format: functional; details: Homo sapiens
# [11] = Luminescence Cell-Based Dose Response HTS to Identify Activators of Luciferase Translation or Activity in H4 […] Cells. [Related pubchem assays: 1829 (Project Summary), 1814 (Primary HTS)]; format: functional
# [12] = Luminescence Cell-Based Dose Confirmation HTS to Identify Activators of 5'UTR Stem-Loop Driven Alpha-Synuclein mRNA Translation in H4 Neuroglioblastoma Cells. [Related pubchem assays: 1829 (Project Summary), 1814 (Primary HTS)]; format: functional
# [13] = target: T5, Calpain-2 catalytic subunit (Sus scrofa, UniProt P43367); experiment: m-calpain protease blockers, concentration series – biochemical, fluorogenic peptide substrate, dose response (AID 1420); format: functional
# T5 sequence (P43367 whole entry): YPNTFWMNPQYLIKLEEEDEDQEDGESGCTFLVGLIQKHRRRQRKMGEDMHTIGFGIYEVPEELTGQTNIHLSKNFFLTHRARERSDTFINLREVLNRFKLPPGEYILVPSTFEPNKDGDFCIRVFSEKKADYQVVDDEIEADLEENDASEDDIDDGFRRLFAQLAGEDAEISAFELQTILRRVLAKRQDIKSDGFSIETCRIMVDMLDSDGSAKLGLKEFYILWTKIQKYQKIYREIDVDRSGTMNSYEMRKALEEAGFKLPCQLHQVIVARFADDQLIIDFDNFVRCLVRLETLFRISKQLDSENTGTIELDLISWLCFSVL
# BJ [14] = experiment: BJ-TERT fibroblast viability loss – cell-based, RAS-independent, luminescence, dose response (AID 1933); format: functional; details: Homo sapiens
# BJ [15] = experiment: cells; format: functional, cell-based; details: Homo sapiens
# BJ [16] = experiment: BJ-TERT-LT-ST fibroblast viability loss – cell-based, RAS-independent, luminescence, dose response (AID 1935); format: functional; details: Homo sapiens;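 further: BJ fibroblasts immortalized with TERT plus LT and ST oncogenes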
# [17] = DRD fibroblast viability loss – cell-based, non-viral oncogenic, luminescence, dose response (AID 1934); format: functional; details: Homo sapiens
# Cytochrome P450 3A4 = Cytochrome P450 3A4 (Homo sapiens, UniProt P08684);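 further: CYP3A4 tested as one member of a cytochrome P450 panel screen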
# Sequence of Cytochrome P450 3A4 (P08684 whole entry): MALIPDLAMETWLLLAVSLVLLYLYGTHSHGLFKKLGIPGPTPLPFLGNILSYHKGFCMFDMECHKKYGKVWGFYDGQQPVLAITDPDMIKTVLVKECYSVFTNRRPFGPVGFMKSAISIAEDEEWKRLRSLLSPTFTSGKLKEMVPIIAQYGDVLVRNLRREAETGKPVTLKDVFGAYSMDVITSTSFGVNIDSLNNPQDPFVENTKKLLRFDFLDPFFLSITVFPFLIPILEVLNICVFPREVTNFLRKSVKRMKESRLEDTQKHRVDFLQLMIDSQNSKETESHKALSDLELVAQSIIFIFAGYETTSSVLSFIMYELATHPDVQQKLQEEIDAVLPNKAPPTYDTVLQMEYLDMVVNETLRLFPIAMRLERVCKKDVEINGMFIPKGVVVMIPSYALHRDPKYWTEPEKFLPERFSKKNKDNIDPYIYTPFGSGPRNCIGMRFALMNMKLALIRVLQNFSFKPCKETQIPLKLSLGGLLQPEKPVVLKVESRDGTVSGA
# Cytochrome P450 2C19 = Cytochrome P450 2C19 (Homo sapiens, UniProt P33261); experiment: Cytochrome panel assay with activity outcomes. Panel member name: p450-cyp2c19 Compounds with AC50 equal or less than 10 uM are considered active; format: functional
# Sequence of Cytochrome P450 2C19 (P33261 whole entry): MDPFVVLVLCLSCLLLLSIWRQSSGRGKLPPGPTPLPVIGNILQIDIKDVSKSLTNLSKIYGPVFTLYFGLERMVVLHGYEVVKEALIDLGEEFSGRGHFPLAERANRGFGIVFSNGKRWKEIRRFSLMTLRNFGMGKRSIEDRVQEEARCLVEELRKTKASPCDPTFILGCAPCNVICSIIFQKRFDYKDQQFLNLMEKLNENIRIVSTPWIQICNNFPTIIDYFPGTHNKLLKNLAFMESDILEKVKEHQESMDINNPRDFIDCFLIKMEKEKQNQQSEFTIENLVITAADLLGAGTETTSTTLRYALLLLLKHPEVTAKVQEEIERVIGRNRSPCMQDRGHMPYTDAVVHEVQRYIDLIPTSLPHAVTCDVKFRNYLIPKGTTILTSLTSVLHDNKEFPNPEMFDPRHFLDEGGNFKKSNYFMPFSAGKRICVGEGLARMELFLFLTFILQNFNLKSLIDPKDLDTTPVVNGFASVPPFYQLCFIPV
# BJ [18] = experiment: growth inhibition of engineered Ras-driven BJ cells – cell-based, alamar blue fluorescence, cherrypicked samples, dose response (AID 2631); format: functional; details: Homo sapiens;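 further: confirmatory dose-response assay in RAS-dependent BJ fibroblasts engineered with TERT, LT and ST, with cytotoxicity read by fluorescence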
# [19] = reduction of Shn3 3'UTR-driven luciferase in osteoblasts – cell-based, Clone20 osteoblasts, firefly luciferase, cherry-picked, dose response (AID 624132); format: functional;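 further: firefly luciferase luminescence from reporter carrying the Shn3 3'UTR in osteoblasts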
# [20] = non-specific 3'UTR reporter inhibition in Clone20-Shn3RL – cell-based, Renilla luciferase, cherry-picked, counter-screen for Shn3 inhibitor project, dose response (AID 624133); format: functional
# Cytochrome P450 2D6 = Cytochrome P450 2D6 (Homo sapiens, UniProt P10635);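 further: CYP2D6 member of a cytochrome P450 panel assay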
# Sequence of Cytochrome P450 2D6 (P10635 whole entry): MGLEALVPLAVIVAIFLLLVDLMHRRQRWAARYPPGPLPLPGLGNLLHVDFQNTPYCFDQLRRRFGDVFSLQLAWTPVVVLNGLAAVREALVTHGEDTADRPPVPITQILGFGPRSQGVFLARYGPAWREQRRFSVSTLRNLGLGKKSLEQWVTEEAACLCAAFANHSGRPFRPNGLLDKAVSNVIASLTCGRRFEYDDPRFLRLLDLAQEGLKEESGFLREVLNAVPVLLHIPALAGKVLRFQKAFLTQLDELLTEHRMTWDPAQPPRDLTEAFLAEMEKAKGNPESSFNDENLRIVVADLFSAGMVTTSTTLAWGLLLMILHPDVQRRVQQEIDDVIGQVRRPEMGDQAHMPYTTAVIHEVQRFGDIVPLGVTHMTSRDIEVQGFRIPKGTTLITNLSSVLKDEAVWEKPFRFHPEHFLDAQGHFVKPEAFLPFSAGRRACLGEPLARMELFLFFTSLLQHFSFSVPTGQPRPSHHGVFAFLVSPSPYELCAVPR
smiles,measurement,setting,value
COc1ccc(OC)c(NC(=O)CSc2sc3c(O)cc(=O)[nH]c3c2C#N)c1,IC50,[1],5.22 µM (active)
Cc1ccc2[nH]c(O)c(N=NC(=O)c3ccc(NS(=O)(=O)c4cccs4)cc3)c2c1,EC50,Streptococcus,16.3 µM (active)
same,EC50,[2],0.429 µM (active)
same,IC50,[1],11.5 µM (active)
same,EC50,Streptokinase A,> 150 µM (not active)
CCO[C@@H]1OC(C(=O)NCc2nc3ccccc3[nH]2)=C[C@H](C(C)(C)C)[C@H]1CCCO,EC50,[3],0.297 µM (inconclusive)
same,IC50,[4],> 80 µM (inactive)
same,EC50,[5],> 60 µM (not active)
same,EC50,[6],10.5 µM (active)
COc1ccccc1N1CCN(C[C@@H]2CN3C(=O)N(C)c4ccccc4C3=N2)CC1,AC50,Cytochrome P450 1A2,31.6 µM (inconclusive)
same,AC50,Cytochrome P450 2C9,inconclusive
COc1ccccc1N1CCN(C(=O)c2ccc(-c3ccc(Cl)cc3)o2)CC1,IC50,[4],72.7 µM (inactive)
C=C(C)Cn1c(-c2ccc(OC)cc2)nc2ccccc21,EC50,[7],> 50 µM (active)
Cc1ccc(S(=O)(=O)/N=C(\CCl)N2CCOCC2)cc1,CC50,[8],> 40 µM (active)
same,CC50,[9],30.1 µM (active)
same,IC50,cells,10.8 µM (active)
Fc1ccc(NC(S)=NCc2ccccc2Cl)cc1,EC50,[7],> 50 µM (active)
O=C1C2C3C=CC(CC3)C2C(=O)N1/N=C/c1ccc(O)cc1 (configuration not stated),EC50,[7],> 50 µM (active)
c1ccc(-c2nc3ccccc3[nH]2)cc1,EC50,[10],> 195 µM (not active)
same,EC50,[7],> 50 µM (active)
COc1cc(OC)cc(C(=O)Nc2ccccc2C(=O)N2CCCC2)c1,EC50,H4,> 120 µM (not active)
same,AC50,Cytochrome P450 1A2,14.1 µM (inconclusive)
same,EC50,[11],> 120 µM (not active)
same,EC50,[12],> 120 µM (not active)
same,AC50,Cytochrome P450 2C9,inconclusive
O=C1CC(c2cccc(Br)c2)c2cc3c(cc2N1)CCC3 (configuration not stated),IC50,[4],> 80 µM (inactive)
same,IC50,[13],> 50 µM (not active)
Cc1nnc(SCC(=O)Nc2nsc(-c3ccc(Cl)cc3)n2)s1,IC50,[1],15.2 µM (active)
Cc1ccc(C(=O)Nc2cc3ccccc3oc2=O)cc1,EC50,[10],0.21 µM (active)
same,EC50,BJ [14],18.4 µM (active)
same,IC50,[4],> 80 µM (inactive)
same,EC50,BJ [15],9.35 µM (active)
same,EC50,BJ [16],24 µM (active)
same,EC50,[17],6.97 µM (active)
CS(=O)(=O)c1cnc2c(-c3ccc(F)cc3)cnn2c1N,AC50,Cytochrome P450 3A4,28.2 µM (inconclusive)
same,EC50,[7],> 50 µM (active)
Cc1noc(C)c1COc1cccc(C(=O)OCC(=O)N2CC(=O)Nc3ccccc32)c1,IC50,[4],> 80 µM (inactive)
Cn1cnc(C(=O)N2CCc3ccccc3C2)c1C(=O)N1CCc2ccccc2C1,IC50,[1],4.36 µM (active)
Cn1nc(C(F)(F)F)c(/C=N/OC(=O)c2ccc(Cl)cc2)c1Cl,AC50,Cytochrome P450 2C19,10 µM (inconclusive)
same,AC50,Cytochrome P450 2C9,inconclusive
CC1CCCCC1N(C)C1CCN(C(=O)CNC(=O)/C=C/c2cccc(Cl)c2)CC1 (configuration not stated),EC50,BJ [14],2.72 µM (active)
same,EC50,BJ [18],1.51 µM (active)
same,EC50,BJ [15],2.79 µM (active)
same,EC50,BJ [16],2.63 µM (inconclusive)
same,EC50,[17],3.46 µM (active)
Cc1ccc(N2C(=O)c3cccc4c([N+](=O)[O-])ccc(c34)C2=O)c2cccnc12,EC50,BJ [14],2.21 µM (inconclusive)
same,EC50,BJ [18],0.782 µM (active)
same,EC50,BJ [15],26.5 µM (inconclusive)
same,AC50,[19],5.68 µM (active)
same,EC50,BJ [16],3.88 µM (inconclusive)
same,AC50,[20],29.5 µM (active)
same,EC50,[17],5.37 µM (inconclusive)
COc1ccc(/C=C/C(=O)Nc2cc(C(F)(F)F)ccc2Cl)cc1,AC50,Cytochrome P450 3A4,10 µM (inconclusive)
same,AC50,Cytochrome P450 2C19,0.00631 µM (inconclusive)
same,AC50,Cytochrome P450 2C9,inconclusive
N#Cc1ccccc1S(=O)(=O)N1CCN(C(=O)c2cc3c(s2)CCC3)CC1,IC50,[1],5.88 µM (active)
NC1CCN(c2nc3c(cc2F)c(=O)c(C(=O)O)cn3-c2ccc(F)cc2F)C1 (configuration not stated) [TOSUFLOXACIN TOSYLATE],EC50,Streptococcus,0.999 µM (active)
same,EC50,[2],0.276 µM (active)
same,EC50,[7],> 50 µM (active)
Cc1ccc(SCc2ccc(C(=O)Nc3cc([N+](=O)[O-])ccc3C)cc2)cc1,AC50,Cytochrome P450 3A4,8.91 µM (inconclusive)
same,AC50,Cytochrome P450 2D6,3.16 µM (inconclusive)
same,AC50,Cytochrome P450 2C9,inconclusive

# From ChEMBL document CHEMBL1201862, “PubChem BioAssay data set” (2004)
